Measurements reported in US20240384268A1, “Oligonucleotides” (Hudson Institute of Medical Research, priority 2021, published 2024).
In the oligonucleotide strings, read from the 5' end, every base follows the letter of its sugar. An asterisk marks phosphorothioate; unmarked linkages are phosphodiester. Other units and linkages are bracketed, terminal groups are in braces. A string of capitals states the bases alone. d = 2'-deoxy (DNA); m = 2'-O-methyl

These substances were tested against T1, TLR8 (Homo sapiens, UniProt Q9NR97) (assay: HEK-TLR8 NF-κB-luciferase reporter, R848 or Motolimod stimulation (potentiation or inhibition)). Conditions: HEK-TLR8; 500 nM ASO ~30 min; R848 overnight.
T1 sequence (Q9NR97 27-1041): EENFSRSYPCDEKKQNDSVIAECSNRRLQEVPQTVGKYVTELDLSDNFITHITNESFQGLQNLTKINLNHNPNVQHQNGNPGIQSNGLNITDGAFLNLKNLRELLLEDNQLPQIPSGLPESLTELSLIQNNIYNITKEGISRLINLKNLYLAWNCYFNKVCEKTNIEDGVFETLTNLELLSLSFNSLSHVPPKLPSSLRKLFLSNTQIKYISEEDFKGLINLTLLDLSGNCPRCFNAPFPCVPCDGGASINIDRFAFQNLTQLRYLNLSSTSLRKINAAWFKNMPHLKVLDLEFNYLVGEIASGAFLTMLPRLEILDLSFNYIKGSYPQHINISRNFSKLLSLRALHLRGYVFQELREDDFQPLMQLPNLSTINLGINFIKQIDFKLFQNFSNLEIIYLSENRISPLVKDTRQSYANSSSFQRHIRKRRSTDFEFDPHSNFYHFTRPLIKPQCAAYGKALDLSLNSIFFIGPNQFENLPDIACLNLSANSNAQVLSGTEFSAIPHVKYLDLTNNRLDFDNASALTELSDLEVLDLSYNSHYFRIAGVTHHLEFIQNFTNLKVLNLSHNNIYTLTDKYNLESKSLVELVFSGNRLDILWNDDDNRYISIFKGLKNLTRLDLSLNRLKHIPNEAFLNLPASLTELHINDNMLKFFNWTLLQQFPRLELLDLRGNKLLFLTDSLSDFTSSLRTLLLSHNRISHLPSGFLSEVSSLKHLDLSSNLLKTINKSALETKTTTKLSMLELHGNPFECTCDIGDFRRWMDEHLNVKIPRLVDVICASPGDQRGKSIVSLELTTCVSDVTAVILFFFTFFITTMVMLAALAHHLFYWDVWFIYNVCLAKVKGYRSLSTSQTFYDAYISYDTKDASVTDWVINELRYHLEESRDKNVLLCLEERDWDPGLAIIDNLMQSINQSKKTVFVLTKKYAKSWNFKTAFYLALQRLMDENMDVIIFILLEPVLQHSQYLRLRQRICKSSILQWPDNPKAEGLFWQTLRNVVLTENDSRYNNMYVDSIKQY
Format: cell-based
Set-up: expressed in transfected cells; host or cells: 293XLhTLR8 (HEK293)

| Substance | TLR8 potentiation of R848 sensing, 20-mer ASOs (in words) |
| --- | --- |
| mG*mC*mA*mG*mU*C*T*C*C*A*T*G*T*C*C*mC*mA*mG*mG*mC (GCAGUCTCCATGTCCCAGGC; antisense; sugars from the 5' end m5 d10 m5, all phosphorothioate, methylation of C not given here) [[CDKN2B-AS1]2234] | weak potentiator of TLR8 |

Same assay, conditions: HEK-TLR8; 500 nM ASO; fold increase relative to R848 without ASO (Alharbi et al., 2020)

| Substance | TLR8-500 nM: averaged NF-κB-Luciferase relative to R848 [fold] |
| --- | --- |
| mA*mA*mA*mG*mC*A*G*T*C*T*C*C*A*T*G*mU*mC*mC*mC*mA (mA*mA*mA*mG*mC*dA*dG*dT*dC*dT*dC*dC*dA*dT*dG*mU*mC*mC*mC*mA; antisense) [[CDKN2B-AS1]2237] | 3.38 |
| mA*mA*mG*mC*mA*G*T*C*T*C*C*A*T*G*T*mC*mC*mC*mA*mG (mA*mA*mG*mC*mA*dG*dT*dC*dT*dC*dC*dA*dT*dG*dT*mC*mC*mC*mA*mG; antisense) [[CDKN2B-AS1]2236] | 2.62 |
| mA*mG*mC*mA*mG*T*C*T*C*C*A*T*G*T*C*mC*mC*mA*mG*mG (AGCAGTCTCCATGTCCCAGG; antisense; sugars from the 5' end m5 d10 m5, all phosphorothioate, methylation of C not given here) [[CDKN2B-AS1]2235] | 4.93 |
| mA*mG*mU*mC*mU*C*C*A*T*G*T*C*C*C*A*mG*mG*mC*mC*mU (mA*mG*mU*mC*mU*dC*dC*dA*dT*dG*dT*dC*dC*dC*dA*mG*mG*mC*mC*mU; antisense) [[CDKN2B-AS1]2232] | 2.28 |
| mA*mG*mU*mG*mG*C*A*C*A*T*A*C*C*A*C*mA*mC*mC*mC*mU (AGUGGCACATACCACACCCU; antisense; sugars from the 5' end m5 d10 m5, all phosphorothioate, methylation of C not given here) [[CDKN2B-AS1]495] | 4.48 |
| mA*mU*mU*mU*mC*C*A*C*A*T*G*C*C*C*A*mG*mU*mG*mU*mU (AUUUCCACATGCCCAGUGUU; antisense; sugars from the 5' end m5 d10 m5, all phosphorothioate, methylation of C not given here) [[CDKN2B-AS1]626] | 4.09 |
| mC*mA*mG*mU*mC*T*C*C*A*T*G*T*C*C*C*mA*mG*mG*mC*mC (mC*mA*mG*mU*mC*dT*dC*dC*dA*dT*dG*dT*dC*dC*dC*mA*mG*mG*mC*mC; antisense) [[CDKN2B-AS1]2233] | 3.81 |
| mC*mA*mG*mU*mG*T*T*T*T*T*A*A*T*T*T*mU*mG*mU*mA*mG (mC*mA*mG*mU*mG*dT*dT*dT*dT*dT*dA*dA*dT*dT*dT*mU*mG*mU*mA*mG; antisense) [[CDKN2B-AS1]613] | 6.73 |
| mC*mU*mU*mG*mU*G*A*A*A*A*G*A*T*T*A*mU*mC*mU*mU*mC (mC*mU*mU*mG*mU*dG*dA*dA*dA*dA*dG*dA*dT*dT*dA*mU*mC*mU*mU*mC) [[CDKN2B-AS1]2139] | 6.02 |
| mG*mC*mA*mG*mU*C*T*C*C*A*T*G*T*C*C*mC*mA*mG*mG*mC (GCAGUCTCCATGTCCCAGGC; antisense; sugars from the 5' end m5 d10 m5, all phosphorothioate, methylation of C not given here) [[CDKN2B-AS1]2234] | 2.25 |
| mG*mU*mC*mU*mC*C*A*T*G*T*C*C*C*A*G*mG*mC*mC*mU*mC (mG*mU*mC*mU*mC*dC*dA*dT*dG*dT*dC*dC*dC*dA*dG*mG*mC*mC*mU*mC) [[CDKN2B;AS1]2231] | 1.25 |
| mG*mU*mG*mU*mC*C*T*T*C*A*T*G*C*T*T*mU*mG*mG*mA*mU (GUGUCCTTCATGCTTUGGAU; antisense; sugars from the 5' end m5 d10 m5, all phosphorothioate, methylation of C not given here) [[CDKN2B-AS1]1415] | 1.60 |
| mG*mU*mG*mU*mU*T*T*T*A*A*T*T*T*T*G*mU*mA*mG*mA*mG (mG*mU*mG*mU*mU*dT*dT*dT*dA*dA*dT*dT*dT*dT*dG*mU*mA*mG*mA*mG) [[CDKN2B-AS1]611] | 1.88 |
| mU*mA*mU*mU*mU*C*C*A*C*A*T*G*C*C*C*mA*mG*mU*mG*mU (mU*mA*mU*mU*mU*dC*dC*dA*dC*dA*dT*dG*dC*dC*dC*mA*mG*mU*mG*mU; antisense) [[CDKN2B-AS1]627] | 3.87 |
